# Entries after “also recorded” stand apart in the source; their conditions may differ.
# Legend:
# [1] = tested on: B164A5 murine melanoma cells; test: MTT cell viability assay on B164A5; settings: for reduction of cellular viability: 1 µM, 72 h, MTT; for viability at 1 µM: read-out: cell viability, 1 µM, 72 h, MTT; for viability at 75 µM: read-out: cell viability (growth percentage), 75 µM, 72 h, MTT
# Protocol: (§1) The MTT assay was used to determine the effect of 2,3-indolo-betulinic acid derivatives and betulinic acid on the viability of HaCaT human keratinocyte cell line and B164A5 murine melanoma cells. […] Briefly, 1 × 10^4 cells per well were seeded onto 96-well culture plates and incubated until 70–80% confluence was achieved. Subsequently, the cells were subjected to stimulation for a duration of 72 h using five distinct concentrations (1, 10, 25, 50, and 75 µM) of the test samples. Following a 72 h incubation period, a 10 μL amount of a 5 mg/mL MTT solution obtained from the MTT kit (Sigma-Aldrich, St. Louis, MO, USA) was introduced into each well and subjected to an additional 3 h incubation. The formazan crystals that had been yielded were dissolved by the addition of 100 μL per well of the lysis solution that was included in the MTT kit. B164A5 cells and HaCaT cells were used as a control, and they were only treated with culture medium for 72 h. The spectrophotometric analysis of absorbance was performed at a wavelength of 570 nm using a microplate reader (BioRad, Hercules, CA, USA, xMark Microplate Spectrophotometer).
# [2] = tested on: murine melanoma B164A5 cells; test: Hoechst 33342 nuclear staining; assay type: cell-based; settings: 25, 50, 75 μM tested; exposure per Figure 7 legend
# Protocol: The procedure was implemented in accordance with the manufacturer’s recommendations. […] A positive control was used to induce apoptosis, using a concentration of 5 µM staurosporine for a duration of 3 h at a temperature of 37 °C. Similarly, for necrosis induction, a concentration of 0.5% Triton X-100 was utilized, with an incubation period of 30 min at 37 °C.
# [3] = tested on: human melanoma cell line A375; set-up: method as in PMID 36986941; settings: cited from earlier work; for wound healing rate: 50 µM
# [4] = in vitro; settings: human
# Protocol: (§2) The effect of testing substances (BI and BA1-BA4) on the survival of human keratinocytes cell line HaCat was also assessed.
# as §1
# [5] = tested on: B164A5 cells; test: Scratch (wound healing) anti-migratory assay; assay type: cell-based, murine; settings: 50 µM, 24 h
# Protocol: To evaluate the invasion capability of B164A5 cells after stimulation with the tested compounds (1, 10, 25, and 50 µM), a scratch-based experiment was conducted. In summary, a quantity of 2 × 10^5 cells/well were evenly distributed onto 12-well culture plates until a complete and cohesive layer of cells was achieved. Subsequently, a sterile pipette tip was used to create a void in the center of each well. The cells and cellular debris that were detached subsequent to the process were carefully rinsed using phosphate buffer saline (PBS). Additionally, the cells were subjected to stimulation with the tested compounds. Photographs of the scratched region were captured at two time points: 0 h and 24 h. The images were obtained using an inverted microscope (Olympus IX73, Olympus, Tokyo, Japan) with a DP74 camera (Olympus, Tokyo, Japan) at a magnification of 10×. The cellSense Dimension program was used for the purpose of analyzing cell growth.
# The scratch closure rate was calculated using the formula [78]:Scratch closure rate = [(At0 − At)/[…]] × 100, where At0 represents the initial scratch area at time 0 h, and At represents the scratch area after 24 h.
# [6] = tested on: Lox IMVI melanoma cells; set-up: method as in doi:10.1134/S1068162018030081; settings: 100 µM, 48 h; cited from earlier work
# [7] = tested on: human melanoma A375 cells; settings: cited from earlier work; for cytotoxic effect (LDH): 25 µM
# [8] = tested on: SK-MEL-2 cells; set-up: method as in doi:10.1134/S1068162018030081; settings: 100 µM, 48 h; cited from earlier work
# [9] = MTT cell viability assay on HaCaT; settings: human, HaCaT keratinocyte cells
# Protocol: as §2, §1
# [10] = tested on: HaCaT human keratinocyte cell line; test: MTT cell viability assay on HaCaT; settings: for reduction in cell viability: increasing dosages (25, 50, and 75 μM), 72 h
# Protocol: as §2, §1
# [11] = tested on: A375 human melanoma cells; set-up: method as in PMID 27553358; settings: 72 h incubation; cited from earlier work
# [12] = tested on: B164A5 murine melanoma cells; test: Lactate dehydrogenase (LDH) release assay; settings: 75 µM, 72 h
# Protocol: The LDH technique is used to evaluate the extracellular release of internal lactate dehydrogenase subsequent to the disruption of the cellular membrane.
# The present investigation used the LDH test to assess the cytotoxicity and necrosis-related events that transpired after the exposure of B164A5 murine melanoma cells to the test samples for a duration of 72 h.
# The experimental procedure was conducted in accordance with the instructions outlined in the pierce LDH cytotoxicity assay kit, which was supplied by the manufacturer (Thermo Fisher Scientific, Boston, MA, USA).
# [13] = tested on: murine melanoma cells B164A5; set-up: cell viability: dose or concentration left out as unconfirmed; settings: cited from earlier work
# [14] = tested on: HaCaT cells; settings: concentrations over 10 μM; cited from earlier work
# [15] = tested on: murine melanoma cells (B164A5); test: Neutral Red (NR) cytotoxicity assay; settings: 75 µM, 72 h
# Text: In addition to undertaking the MTT proliferation assessment, the NR technique was used to measure the cytotoxicity rate of the substances being studied. The underlying premise of this methodology depends upon the measurement of live cells using the NR chromophore, which effectively stains the lysosome of living cells. […] Consequently, live cells have the capability to secrete the NR dye when subjected to acidic conditions. Moreover, the intensity of the dye may be directly associated with the quantity of living cells, thereby enabling the assessment of drug-induced cytotoxicity.
# In summary, the experimental procedure included subjecting the cells to five different doses (1, 10, 25, 50, and 75 µM) of test samples for a duration of 72 h. Subsequently, a volume of 10 μL of a 0.33% NR solution was introduced into each well, followed by an incubation period of at least 3 h. Following the completion of the incubation time, the medium was extracted, and the cells were promptly rinsed with a 50 μL solution of NR assay fixative. Subsequently, a solubilization step was carried out using a 100 μL solution of NR assay solubilization solution per well.
Compound,reduction of cellular viability [1] [%],"IC50 ([1]; Mus musculus, B16-4A5, 72 h) [µM]","viability at 1 µM ([1]; Mus musculus, B16-4A5, 72 h) [%]",inhibitory activity relative to BA4 ([1]; ratio of IC50 values),nuclear changes (apoptosis / necrosis) [2],wound healing rate [3] [%],"viability at 72 h, 75 µM [4] [%]",wound healing rate (scratch closure rate) [5] [%],"viability at 75 µM ([1]; Mus musculus, B16-4A5, 72 h) [%]",cytotoxic effect (LDH) [7] [%],reduction in cell viability [10],also measured
"C=C(C)[C@@H]1CC[C@]2(C(=O)NCC(=O)NCC(=O)O)CC[C@]3(C)[C@H](CC[C@@H]4[C@@]5(C)Cc6c([nH]c7ccccc67)C(C)(C)[C@@H]5CC[C@]43C)[C@@H]12 [BA2, N-(2,3-indolo-betulinoyl)glycylglycine]",15,9.15 ± 0.05,15.9,approximately 2.20 fold,"specific signs of apoptosis (chromatin condensation) at both concentrations of 50 and 75 μM; also recorded: distinct signs of apoptosis, such as chromatin condensation, at both concentrations of 50 and 75 μM",30,~70,10.0,,,,"viability at 50 µM ([1]; Mus musculus, B16-4A5, 72 h, read-out: cell viability, 50 µM, 72 h, MTT): 0.41%"
"C=C(C)C1CCC2(C(=O)O)CCC3(C)C(CCC4C5(C)Cc6c([nH]c7ccccc67)C(C)(C)C5CCC43C)C12 (stereo not shown) [BA4, 2,3-indolo-betulinic acid]",,17.62 ± 0.11,,,necrosis only from a concentration of 50 μM; also recorded: necrosis was evident in cells exposed to BA4 and BI only at a concentration of 50 μM,,,,15,43.36,around 21%,"activity relative to parent triterpenoid BI ([1]; ratio of IC50 values): 1.2 times; viability percentage [6]: 44%; cytotoxic rate (LDH) ([7]; 75 µM): 32.8%; viability rate [8]: 57%; viability at 72 h, 75 µM [9]: 80.3%"
"C=C(C)[C@@H]1CC[C@]2(C(=O)NCC(=O)NCC(=O)NCC(=O)O)CC[C@]3(C)[C@H](CC[C@@H]4[C@@]5(C)Cc6c([nH]c7ccccc67)C(C)(C)[C@@H]5CC[C@]43C)[C@@H]12 [BA1, N-(2,3-indolo-betulinoyl)diglycylglycine]",27,10.34 ± 0.06,,,apoptosis features only at a concentration of 75 μM; also recorded: apoptotic characteristics only at a concentration of 75 μM,35,~70,,5.7,,,IC50 [11]: 5.7 µM
"C=C(C)[C@@H]1CC[C@]2(C(=O)NCC(=O)O)CC[C@]3(C)[C@H](CC[C@@H]4[C@@]5(C)Cc6c([nH]c7ccccc67)C(C)(C)[C@@H]5CC[C@]43C)[C@@H]12 [BA3, N-(2,3-indolo-betulinoyl)glycine]",,8.11 ± 0.13,8.1,approximately 2.20 fold,necrosis process being observed from concentration of 25 μM; also recorded: necrotic process being apparent at a dosage of 25 μM,,~70,21.3,-1.5,,,
"C=C(C)[C@@H]1CC[C@]2(C(=O)O)CC[C@]3(C)[C@H](CC[C@@H]4[C@@]5(C)CC[C@H](O)C(C)(C)[C@@H]5CC[C@]43C)[C@@H]12 [BI, Betulinic acid]",32,21.14 ± 0.08,31.3,,necrosis only from a concentration of 50 μM; also recorded: necrosis was evident in cells exposed to BA4 and BI only at a concentration of 50 μM,,,34.9,9.6,21.2,around 21%,"LDH release (cytotoxic rate) [12]: 52.7%; reduction in cell viability ([1]; 25 µM, 72 h exposure): 71%; scratch closure rate ([3]; 25 µM): 17.5%; reduction in cell viability ([13]; 25 µM, 48 h of exposure): 40%; cell viability ([13]; 72 h of exposure): 50%; decrease in cell viability [14]: 20%; cytotoxicity rate (NR assay) [15]: 63.0%; cell viability diminished by ([10]; concentrations exceeding 10 µM): approximately 20%"
